Experimental data as given in patent US8252832B2, “Kinesin inhibitors as cancer therapeutics” (Novartis AG, priority 2007, dated 2012).
Where two headings read alike, the source gives them in different places.

Columns and labels:
Test in all cases: CellTiter-Glo, NCI60 panel
Assay type in all cases: cell-based
[1] = tested on: SK-MEL-5; settings: Melanoma; for GI50: Homo sapiens
Method in brief: (§1)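 Luciferase-based ATP read-out (CellTiter-Glo) as a measure of viable cell number. Adherent lines were plated and left 24 h before dosing, non-adherent lines dosed at once. Treatment ran 48 h at 37° C. The value is the concentration giving 50% reduction in growth.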

[2] = tested on: OVCAR-5; settings: Ovarian; for GI50: Homo sapiens
Method in brief: as §1

[3] = tested on: HOP-92; settings: NSCL; for GI50: Homo sapiens
Method in brief: as §1

[4] = tested on: MDA-MB-231; settings: Breast; for GI50: Homo sapiens
Method in brief: as §1

[5] = tested on: SR; settings: Leukemia; for GI50: Homo sapiens
Method in brief: as §1

[6] = tested on: SW-620; settings: Colon; for GI50: Homo sapiens
Method in brief: as §1

[7] = tested on: NCI/ADR-RES; settings: Ovarian; for GI50: Homo sapiens
Method in brief: as §1

[8] = tested on: K-562; settings: for GI50: Homo sapiens, K562, Leukemia
Method in brief: as §1

[9] = tested on: BT-474; settings: Breast; for GI50: Homo sapiens
Method in brief: as §1

[10] = tested on: NCI-H460; settings: NSCL; for GI50: Homo sapiens
Method in brief: as §1

[11] = tested on: SN12C; settings: Renal; for GI50: Homo sapiens
Method in brief: as §1

[12] = tested on: OVCAR-4; settings: Ovarian; for GI50: Homo sapiens
Method in brief: as §1

[13] = tested on: HL-60; settings: Leukemia; for GI50: Homo sapiens
Method in brief: as §1

[14] = tested on: OVCAR-3; settings: Ovarian; for GI50: Homo sapiens
Method in brief: as §1

[15] = GI50 in nM, read-out: Log(GI50) (converted)

## CC(C)(C)[C@H](c1nc(-c2cc(F)ccc2F)cn1Cc1ccccc1)N(CC[C@H](N)CF)C(=O)CO [Compound IIa]
[1]; [15]
  GI50: 10 nM
[1]; read-out: GI50
  GI50: 10 nM
[1]
  Differential vs mean Log(GI50): −0.669
[2]; [15]
  GI50: 10 nM
[2]; read-out: GI50
  GI50: 10 nM
[2]
  Differential vs mean Log(GI50): −0.669
[3]; [15]
  GI50: 10 nM
[3]; read-out: GI50
  GI50: 10 nM
[3]
  Differential vs mean Log(GI50): −0.669
[4]
  Differential vs mean Log(GI50): 0.809
[4]; [15]
  GI50: 0.333 nM
[4]; read-out: GI50
  GI50: 0.333 nM
[5]; [15]
  GI50: 0.095 nM
[5]; read-out: GI50
  GI50: 0.095 nM
[5]
  Differential vs mean Log(GI50): 1.353
[6]
  Differential vs mean Log(GI50): 0.958
[6]; [15]
  GI50: 0.236 nM
[6]; read-out: GI50
  GI50: 0.236 nM
[7]; [15]
  GI50: 4.18 nM
[7]; read-out: GI50
  GI50: 4.18 nM
[7]
  Differential vs mean Log(GI50): −0.290
[8]; [15]
  GI50: 0.218 nM
[8]; read-out: GI50
  GI50: 0.218 nM
[8]; Leukemia
  Differential vs mean Log(GI50): 0.993
[9]
  Differential vs mean Log(GI50): −0.669
[9]; [15]
  GI50: 10 nM
[9]; read-out: GI50
  GI50: 10 nM
[10]; [15]
  GI50: 0.378 nM
[10]; read-out: GI50
  GI50: 0.378 nM
[10]
  Differential vs mean Log(GI50): 0.754
[11]; [15]
  GI50: 10 nM
[11]; read-out: GI50
  GI50: 10 nM
[11]
  Differential vs mean Log(GI50): −0.669
[12]; [15]
  GI50: 10 nM
[12]; read-out: GI50
  GI50: 10 nM
[12]
  Differential vs mean Log(GI50): −0.669
[13]; [15]
  GI50: 0.165 nM
[13]; read-out: GI50
  GI50: 0.165 nM
[13]
  Differential vs mean Log(GI50): 1.114
[14]; [15]
  GI50: 10 nM
[14]; read-out: GI50
  GI50: 10 nM
[14]
  Differential vs mean Log(GI50): −0.669
